The source of these data is paper PMC6442119, “The antitumor activity of CYB-L10, a human topoisomerase IB catalytic inhibitor” (Journal of Enzyme Inhibition and Medicinal Chemistry, 2019).

The structures appear in SMILES notation.

Common to all, as to assay: MTT assay
One test concerns MCF-7. It counts as cell-based. Particulars: Homo sapiens, MCF7; Parental cell line MCF-7, MTT, 72 h.
Another test concerns DU-145. Format: cell-based. The settings on record: Homo sapiens; Parental cell line DU-145, MTT, 72 h.
The next test concerns RC0.1. The settings on record: Homo sapiens, 72 h, read-out: GI50 ± SD.

Take `COc1cccc2c1C(=O)c1c(O)c3c(c(O)c1C2=O)C[C@@](O)(C(=O)CO)C[C@@H]3O[C@H]1C[C@H](N)[C@H](O)[C@H](C)O1` [DOX, doxorubicin, reference compound]: the GI50 with MCF-7 was 150 ± 3 nM.

`CC[C@@]1(O)C(=O)OCc2c1cc1n(c2=O)Cc2cc3ccccc3nc2-1` [CPT, Camptothecin, reference compound]: the GI50 in the test with DU-145 came to 19 ± 9 nM; in the test on RC0.1 it was 7530 ± 1880 nM.
